Earlier results on seven compounds are cited in patent EP4364951A1, “OVERCOAT INK AND INK SET CONTAINING SAME” (DNP Fine Chemicals Co., Ltd., priority 2021, dated 2023).

The conditions of this data set: water-octanol, common logarithm.

`CC(O)CO` (stereo not shown) [1,2-Propanediol]: the Partition coefficient is listed as 1,2-Propanediol (-1.008). Turning to `CC(C)(O)CCO` [3-M ethyl-1,3-butanediol], the Partition coefficient is given as 3- M ethyl- 1,3- butanediol (-0.329).

As for `OCCCO` [1,3-Propanediol], the Partition coefficient is 1,3-Propanediol (-1.093). For `CCCC(O)CO` (stereo not shown) [1.2-Pentanediol], the Partition coefficient is recorded as 1.2-Pentanediol (0.011). Regarding `CCOCCOCCO` [Diethylene glycol monoethyl ether], the Partition coefficient result is recorded as “Diethylene glycol monoethyl ether (-0.421)”. Regarding `CCC(O)CO` (stereo not shown) [1,2-Butanediol], the Partition coefficient is reported as 1,2-Butanediol (-0.499). In the case of `COC(C)CCO` (stereo not shown) [3-Methoxy-1-butanol], the Partition coefficient was 3-Methoxy -1-butanol (0.070).
